Results: patent US8927717B1, “Thiochromeno[2,3-c]quinolin-12-one derivatives, preparation method and application thereof” (National Defense Medical Center, priority 2014, dated 2015)

Tests used:
Type in all cases: cell-based
IGROV1 = conditions: for Growth percent IGROV1: Ovarian cancer, 10^−5 molar, 48 hours, SRB
A498 = conditions: for Growth percent A498: Renal cancer, 10^−5 molar, 48 hours, SRB
UACC-257 = conditions: for Growth percent UACC-257: Melanoma, 10^−5 molar, 48 hours, SRB
NCI/ADR-RES = conditions: for Growth percent NCI/ADR-RES: Ovarian cancer, 10^−5 molar, 48 hours, SRB
UACC-62 = conditions: for Growth percent UACC-62: Melanoma, 10^−5 molar, 48 hours, SRB
MALME-3M = conditions: Melanoma; 10^−5 molar; 48 hours; SRB
M14 = conditions: for Growth percent M14: Melanoma, 10^−5 molar, 48 hours, SRB
HOP-92 = conditions: Non-small cell lung cancer; 10^−5 molar; 48 hours; SRB
HCC-2998 = conditions: for Growth percent HCC-2998: Colon cancer, 10^−5 molar, 48 hours, SRB
SNB-19 = conditions: for Growth percent SNB-19: CNS cancer, 10^−5 molar, 48 hours, SRB
SF-539 = conditions: for Growth percent SF-539: CNS cancer, 10^−5 molar, 48 hours, SRB
TK-10 = conditions: for Growth percent TK-10: Renal cancer, 10^−5 molar, 48 hours, SRB
SF-268 = conditions: for Growth percent SF-268: CNS cancer, 10^−5 molar, 48 hours, SRB
SK-MEL-28 = conditions: for Growth percent SK-MEL-28: Melanoma, 10^−5 molar, 48 hours, SRB
MDA-MB-435 = conditions: for Growth percent MDA-MB-435: Melanoma, 10^−5 molar, 48 hours, SRB
OVCAR-5 = conditions: for Growth percent OVCAR-5: Ovarian cancer, 10^−5 molar, 48 hours, SRB
CAKI-1 = conditions: for Growth percent CAKI-1: Renal cancer, 10^−5 molar, 48 hours, SRB
SK-MEL-2 = conditions: for Growth percent SK-MEL-2: Melanoma, 10^−5 molar, 48 hours, SRB
OVCAR-3 = conditions: for Growth percent OVCAR-3: Ovarian cancer, 10^−5 molar, 48 hours, SRB
OVCAR-4 = conditions: for Growth percent OVCAR-4: Ovarian cancer, 10^−5 molar, 48 hours, SRB
[1] = Homo sapiens, HCC-2998, five dose
[2] = Homo sapiens, SNB-19, five dose
[3] = Homo sapiens, SF-539, five dose
[4] = Homo sapiens, SK-MEL-28, five dose
[5] = Homo sapiens, SK-Mel-2, five dose

SMILES: CCNc1nc2ccccc2c2c(=O)c3cc(Cl)ccc3sc12 [Compound N2, 10-Chloro-6-ethylamino-12H-thiochromeno[2,3-c]quinolin-12-one]
- GI50 (IGROV1; Homo sapiens, IGROV-1, IGROV1, five dose): 11.9 µM
- CC50 (IGROV1; Homo sapiens, IGROV-1, IGROV1, five dose, read-out: LC50 (the source's name)): > 100 µM
- TGI (IGROV1; IGROV1, five dose): 54.40 µM
- Growth percent IGROV1 (IGROV1): 59.26%
- TGI (A498; A498, five dose): 91.3 µM
- GI50 (A498; Homo sapiens, A498, five dose): 15.3 µM
- CC50 (A498; Homo sapiens, A498, five dose, read-out: LC50 (the source's name)): > 100 µM
- Growth percent A498 (A498): 61.02%
- GI50 (UACC-257; Homo sapiens, UACC-257, five dose): > 100 µM
- CC50 (UACC-257; Homo sapiens, UACC-257, five dose, read-out: LC50 (the source's name)): > 100 µM
- Growth percent UACC-257 (UACC-257): 75.21%
- TGI (UACC-257; UACC-257, five dose): >100 µM
- GI50 (NCI/ADR-RES; Homo sapiens, NCI/ADR-RES, five dose): 33.5 µM
- CC50 (NCI/ADR-RES; Homo sapiens, NCI/ADR-RES, five dose, read-out: LC50 (the source's name)): > 100 µM
- TGI (NCI/ADR-RES; NCI/ADR-RES, five dose): >100 µM
- Growth percent NCI/ADR-RES (NCI/ADR-RES): 88.61%
- GI50 (UACC-62; Homo sapiens, UACC-62, five dose): 22.3 µM
- CC50 (UACC-62; Homo sapiens, UACC-62, five dose, read-out: LC50 (the source's name)): > 100 µM
- Growth percent UACC-62 (UACC-62): 69.06%
- TGI (UACC-62; UACC-62, five dose): >100 µM
- Growth percent MALME-3M (MALME-3M): 77.31%
- GI50 (M14; Homo sapiens, M14, five dose): > 100 µM
- LC50 (M14; Homo sapiens, M14, five dose): > 100 µM
- TGI (M14; M14, five dose): >100 µM
- Growth percent M14 (M14): 91.72%
- Growth percent HOP-92 (HOP-92): −0.07%
- Growth percent HCC-2998 (HCC-2998): 98.02%
- TGI (HCC-2998; HCC-2998, five dose): >100 µM
- GI50 (HCC-2998; [1]): > 100 µM
- LC50 (HCC-2998; [1]): > 100 µM
- Growth percent SNB-19 (SNB-19): 84.19%
- GI50 (SNB-19; [2]): 26.6 µM
- LC50 (concentration killing 50% of cells) (SNB-19; [2]): > 100 µM
- TGI (SNB-19; SNB-19, five dose): 81.10 µM
- Growth percent SF-539 (SF-539): 60.35%
- GI50 (SF-539; [3]): 10.1 µM
- LC50 (SF-539; [3]): > 100 µM
- TGI (SF-539; SF-539, five dose): 58.50 µM
- CC50 (TK-10; Homo sapiens, TK-10, five dose, read-out: LC50 (the source's name)): > 100 µM
- Growth percent TK-10 (TK-10): 47.11%
- Growth percent SF-268 (SF-268): 78.23%
- GI50 (SF-268; Homo sapiens, SF-268, five dose): 22.1 µM
- CC50 (SF-268; Homo sapiens, SF-268, five dose, read-out: LC50 (the source's name)): > 100 µM
- TGI (SF-268; SF-268, five dose): >100 µM
- GI50 (SK-MEL-28; [4]): > 100 µM
- LC50 (SK-MEL-28; [4]): > 100 µM
- Growth percent SK-MEL-28 (SK-MEL-28): 93.07%
- TGI (SK-MEL-28; SK-MEL-28, five dose): >100 µM
- GI50 (MDA-MB-435; Homo sapiens, MDA-MB-435, five dose): > 100 µM
- CC50 (MDA-MB-435; Homo sapiens, MDA-MB-435, five dose, read-out: LC50 (the source's name)): > 100 µM
- TGI (MDA-MB-435; MDA-MB-435, five dose): >100 µM
- Growth percent MDA-MB-435 (MDA-MB-435): 80.67%
- GI50 (OVCAR-5; Homo sapiens, OVCAR-5, five dose): > 100 µM
- CC50 (OVCAR-5; Homo sapiens, OVCAR-5, five dose, read-out: LC50 (the source's name)): > 100 µM
- TGI (OVCAR-5; OVCAR-5, five dose): >100 µM
- Growth percent OVCAR-5 (OVCAR-5): 92.93%
- TGI (CAKI-1; CAKI-1, five dose): >100 µM
- GI50 (CAKI-1; Homo sapiens, CAKI-1, five dose): 26.4 µM
- CC50 (CAKI-1; Homo sapiens, CAKI-1, five dose, read-out: LC50 (the source's name)): > 100 µM
- Growth percent CAKI-1 (CAKI-1): 72.44%
- GI50 (SK-MEL-2; [5]): 16.3 µM
- LC50 (SK-MEL-2; [5]): > 100 µM
- Growth percent SK-MEL-2 (SK-MEL-2): 76.15%
- TGI (SK-MEL-2; SK-Mel-2, five dose): 43.2 µM
- GI50 (OVCAR-3; Homo sapiens, OVCAR-3, five dose): 52.4 µM
- CC50 (OVCAR-3; Homo sapiens, OVCAR-3, five dose, read-out: LC50 (the source's name)): > 100 µM
- TGI (OVCAR-3; OVCAR-3, five dose): >100 µM
- Growth percent OVCAR-3 (OVCAR-3): 76.51%
- GI50 (OVCAR-4; Homo sapiens, OVCAR-4, five dose): > 100 µM
- CC50 (OVCAR-4; Homo sapiens, OVCAR-4, five dose, read-out: LC50 (the source's name)): > 100 µM
- TGI (OVCAR-4; OVCAR-4, five dose): >100 µM
- Growth percent OVCAR-4 (OVCAR-4): 23.19%

SMILES: O=c1c2cc(Cl)ccc2sc2c(NCCO)nc3ccccc3c12 [Compound N9, 10-Chloro-6-(2-ethanolamino)-12H-thiochromeno[2,3-c]quinolin-12-one]
- Growth percent IGROV1 (IGROV1): 88.51%
- Growth percent A498 (A498): 65.78%
- Growth percent UACC-257 (UACC-257): 89.33%
- Growth percent NCI/ADR-RES (NCI/ADR-RES): 91.54%
- Growth percent UACC-62 (UACC-62): 76.52%
- Growth percent MALME-3M (MALME-3M): 104.86%
- Growth percent M14 (M14): 107.09%
- Growth percent HOP-92 (HOP-92): 63.17%
- Growth percent HCC-2998 (HCC-2998): 101.55%
- Growth percent SNB-19 (SNB-19): 90.96%
- Growth percent SF-539 (SF-539): 90.56%
- Growth percent TK-10 (TK-10): 78.14%
- Growth percent SF-268 (SF-268): 95.06%
- Growth percent SK-MEL-28 (SK-MEL-28): 100.76%
- Growth percent MDA-MB-435 (MDA-MB-435): 94.98%
- Growth percent OVCAR-5 (OVCAR-5): 101.56%
- Growth percent CAKI-1 (CAKI-1): 89.29%
- Growth percent SK-MEL-2 (SK-MEL-2): 86.80%
- Growth percent OVCAR-3 (OVCAR-3): 103.35%
- Growth percent OVCAR-4 (OVCAR-4): 102.67%
